Tests used:
VP16 = molecular target: T1, VP16 (Human herpesvirus 1, UniProt P06492); assay: Gal4-VP16 + pG5-LUC luciferase assay in HeLa cells; type: cell-based; settings: 24 hours, only at higher compound concentrations
T1 construct: expressed in transfected cells; host or cells: HeLa

SRC-1 [1] = molecular target: T2, SRC-1 (Homo sapiens, UniProt Q15788); assay: High throughput primary screen, HEK293 cells with pG5-luc and pBIND-SRC-1; type: cell-based; set-up: expressed in transfected cells; settings: among 359,484 compounds
T2 sequence (Q15788 whole entry, the tested form may be a part): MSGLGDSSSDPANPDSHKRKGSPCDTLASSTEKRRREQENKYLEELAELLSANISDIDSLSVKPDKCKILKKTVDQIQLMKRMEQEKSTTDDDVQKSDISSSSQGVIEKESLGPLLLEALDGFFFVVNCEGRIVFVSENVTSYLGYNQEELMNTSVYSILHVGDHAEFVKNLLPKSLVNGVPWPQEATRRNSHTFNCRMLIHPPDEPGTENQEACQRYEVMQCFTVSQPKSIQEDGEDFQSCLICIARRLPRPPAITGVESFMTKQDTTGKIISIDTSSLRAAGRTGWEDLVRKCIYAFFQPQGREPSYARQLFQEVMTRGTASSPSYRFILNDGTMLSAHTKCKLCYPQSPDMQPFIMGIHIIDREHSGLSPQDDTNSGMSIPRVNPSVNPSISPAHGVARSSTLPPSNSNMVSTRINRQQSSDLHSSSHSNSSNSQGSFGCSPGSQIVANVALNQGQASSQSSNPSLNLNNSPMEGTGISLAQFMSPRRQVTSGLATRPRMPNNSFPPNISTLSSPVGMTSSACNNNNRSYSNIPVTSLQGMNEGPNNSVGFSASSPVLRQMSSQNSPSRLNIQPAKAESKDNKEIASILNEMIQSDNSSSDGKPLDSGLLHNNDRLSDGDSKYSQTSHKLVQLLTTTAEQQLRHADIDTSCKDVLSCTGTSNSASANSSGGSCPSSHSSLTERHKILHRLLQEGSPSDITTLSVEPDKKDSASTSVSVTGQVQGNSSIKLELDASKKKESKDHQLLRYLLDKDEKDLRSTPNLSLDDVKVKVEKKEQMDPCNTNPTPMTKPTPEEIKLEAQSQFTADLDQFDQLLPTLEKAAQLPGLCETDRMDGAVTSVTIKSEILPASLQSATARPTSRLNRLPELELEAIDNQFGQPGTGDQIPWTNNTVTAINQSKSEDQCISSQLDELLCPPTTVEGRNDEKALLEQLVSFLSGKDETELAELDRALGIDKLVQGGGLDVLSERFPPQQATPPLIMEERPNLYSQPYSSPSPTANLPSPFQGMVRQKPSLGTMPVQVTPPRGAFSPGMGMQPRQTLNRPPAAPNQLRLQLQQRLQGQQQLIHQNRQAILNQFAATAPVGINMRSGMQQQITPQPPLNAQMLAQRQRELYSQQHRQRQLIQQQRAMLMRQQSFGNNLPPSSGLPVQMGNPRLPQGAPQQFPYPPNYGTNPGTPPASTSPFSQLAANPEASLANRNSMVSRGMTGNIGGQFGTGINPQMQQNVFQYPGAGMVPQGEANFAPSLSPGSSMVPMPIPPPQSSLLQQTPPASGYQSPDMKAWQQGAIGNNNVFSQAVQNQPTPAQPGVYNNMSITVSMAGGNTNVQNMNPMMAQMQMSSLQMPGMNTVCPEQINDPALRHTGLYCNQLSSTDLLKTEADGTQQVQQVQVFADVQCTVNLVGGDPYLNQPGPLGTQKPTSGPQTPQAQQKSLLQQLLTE
From the text: In a series of high throughput screens originally designed to identify SRC small molecule inhibitors, HEK293 cells transfected with a Gal4 responsive luciferase reporter (pG5-luc) and a construct encoding SRC-1, SRC-2 or SRC-3 fused with the DNA binding domain of Gal4 (pBIND-SRC-1, pBIND-SRC-2 or pBIND-SRC-3) were exposed to treatments with 359,484 compounds from a MLPCN chemical library (PubChem AID:588362, AID:652008 and AID:588354).

intracellular ROS levels = assay: Measurement of reactive oxygen species with CM-H2DCFDA; type: cell-based; settings: 30 minutes treatment
Procedure: Cells were loaded with 10 μM general ROS indicator CM-H2DCFDA in serum free DMEM for 30 minutes at 37° C. in the dark. After a 5-minute recovery in complete DMEM, cells were treated with indicated concentrations of MCB-613 for 30 minutes, then fixed and examined by fluorescence microscopy.

HeLa cells [2] = assay: Cytoplasmic vacuolization of cancer cells; type: cell-based; settings: HeLa, MCF-7 or MDA-MB-231 cells
HeLa cells [3] = assay: MTS cell viability assay, HeLa cells; type: cell-based; settings: SRC-3 KO vs WT HeLa, 24 hours
[4] = molecular target: T3, basic helix-loop-helix (bHLH) domain of SRC-3 (Homo sapiens, UniProt Q9Y6Q9); assay: Fluorescence spectroscopy, intrinsic fluorescence of GST SRC-3 bHLH; type: binding; settings: 1.5 μM GST SRC-3 bHLH
T3 construct: MCB-613 also affected the fluorescence of the basic helix-loop-helix (bHLH) domain; made in house
T3 sequence (Q9Y6Q9 25-82 limits assumed): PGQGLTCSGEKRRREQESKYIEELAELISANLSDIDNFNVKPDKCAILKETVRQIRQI
Procedure: Fluorescence spectrometric measurements were performed on a SLM 48000S fluorescence spectrophotometer (SLM-Aminco, Rochester, N.Y.) and an Agilent Cary Eclipse Fluorescence spectrophotometer (Agilent Technologies, Inc., Santa Clara, Calif.) using the GST fusion proteins of different portions of SRC-3 expressed and purified. A total of 1.5 μM of GST SRC-3 RID, CID or bHLH was placed in a fluorescence cuvette and excited by UV light at a wavelength of 278 nm with a 2 nm bandwidth and the emission spectra were recorded from 290 nm to above 500 nm with a bandwidth of 4 nm. The aliquot size of test compound was maintained below 5% of the total sample volume in order to minimize the effects of dilution.

MCF-7 (breast) cells = assay: MTS cell viability assay, MCF-7; type: cell-based; settings: MCF-7, 48 hours
Procedure: (§1) Cell lines were maintained in DMEM (HeLa, MCF-7, HepG2), RPMI 1640 (H1299), or DMEM/F12 (PC-3) supplemented with 10% fetal calf serum, penicillin and streptomycin (100 U/ml). Primary mouse hepatocytes were isolated and cultured. Mouse embryonic fibroblasts (MEF) were cultured in DMEM. All cells were maintained at 37° C. under 5% CO2.
(§2) Cells were seeded in 96-well plates and allowed to reach 70% to 80% confluence. After indicated compound treatments, relative numbers of viable cells were measured by MTS assay using the Cell Titer 96 Aqueous One Solution Cell Proliferation Assay (Promega).

HepG2 (liver) cells = assay: MTS cell viability assay, HepG2; type: cell-based; settings: HepG2, 48 hours
Procedure: as §1, §2

MEF cells = assay: MTS cell viability assay, mouse embryonic fibroblasts; type: cell-based; settings: 48 hours
Procedure: as §1, §2

PGC-1α = assay: Gal4-PGC-1α + pG5-LUC luciferase assay in HeLa cells; type: cell-based; settings: 24 hours, 2-10 μM
[5] = test system: human pediatric GBM tumor; assay: Patient derived xenograft pediatric GBM model, survival; type: in vivo; settings: treated every day for 14 days, tumor cells in mouse brainstem
Procedure: A tumor from a human patient was transferred directly into a mouse host (patient derived xenograft) without culturing on a plastic substrate. Tumor cells (50,000) were injected into mouse brainstems and allowed to proliferate for 14 days. Animals were treated every day with either MCB-613 (test group) or vehicle (control group) for 14 days. The animals were then housed with no further experimental manipulation. Overall survival was recorded from the experimental and control groups.

MMP13 promoter = assay: MMP13-luc reporter with SRC-3 expression vector in HeLa cells; type: cell-based; settings: 24 hours
Procedure: (§3) The constructs expressing the Gal4 responsive luciferase reporter (pG5-luc), Gal4 DBD fusion with SRC-1, […] (pBIND-SRC-1/-2/-3), MMP2 or MMP13 promoter driven luciferase reporter (MMP2-luc, MMP13-luc) were prepared. Twenty-four hours before transfection, HeLa cells were plated in 24-well dishes. The indicated expression plasmids were transfected into cells using Lipofectamine 2000 according to the manufacturer's instructions.
(§4) After various compound treatments, cells were lysed in luciferase lysis buffer and assayed for luciferase activity using the ONE-Glo luciferase assay system (Promega, Madison, Wis.). All luciferase activities were normalized to protein concentration determined by Bradford assay (Bio-Rad, Hercules, Calif.).

SRC-1 [6] = molecular target: T2, SRC-1; assay: Gal4 luciferase reporter assay (pBIND-SRC-1 + pG5-LUC) in HeLa cells; type: cell-based; set-up: expressed in transfected cells; host or cells: HeLa; settings: 24-hour treatment, 5-8 μM, maximum over SRC-1/-2/-3
Procedure: as §3, §4

PC-3 (prostate) cells = assay: MTS cell viability assay, PC-3; type: cell-based; settings: PC-3, 48 hours
Procedure: as §1, §2

H1299 (lung) cells = assay: MTS cell viability assay, H1299; type: cell-based; settings: H1299, 48 hours
Procedure: as §1, §2

MMP2 promoter = assay: MMP2-luc reporter with SRC-3 expression vector in HeLa cells; type: cell-based; settings: 24 hours
Procedure: as §3, §4

T1 sequence (P06492 413-490): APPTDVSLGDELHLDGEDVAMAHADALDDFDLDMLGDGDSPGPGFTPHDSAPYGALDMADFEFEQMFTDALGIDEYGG

## CCC1CC(=Cc2cccnc2)C(=O)C(=Cc2cccnc2)C1 (stereo not shown) [MCB-613, 4-Ethyl-2,6-bis-pyridin-3-ylmethylene-cyclohexanone]
VP16
  activity of GAL4-VP16 fusion protein: minimally increasing the activity
SRC-1 [1]
  activation of SRC-1 in the primary screen: greatest activation
Intracellular ROS levels
  intracellular ROS levels: rapid and marked increase
HeLa cells [2]
  vacuolization in cancer cells: induced extensive vacuolization
HeLa cells [3]
  viability of SRC-3 KO HeLa cells compared with WT cells: less affected
[4]
  concentration affecting the fluorescence of the bHLH domain: 2 µM
MCF-7 (breast) cells
  cytotoxicity, cell viability: efficiently kill
HepG2 (liver) cells
  cytotoxicity, cell viability: efficiently kill
MEF cells
  cytotoxicity to normal cells: resistant
PGC-1α
  stimulation of GAL4-PGC-1α coactivator fusion protein: failing to stimulate
[5]
  overall survival: extends survival time
MMP13 promoter
  SRC-3's coactivation of the MMP13 promoter: greatly enhanced
SRC-1 [6]
  induction in the activity of pBIND-SRC-1: ≤ 160 fold
PC-3 (prostate) cells
  cytotoxicity, cell viability: efficiently kill
H1299 (lung) cells
  cytotoxicity, cell viability: efficiently kill
MMP2 promoter
  SRC-3's coactivation of the MMP2 promoter: greatly enhanced

Source: patent publication US11312676B2, “Small molecule stimulators of steroid receptor coactivator proteins and their use in the treatment of cancer” (BAYLOR COLLEGE OF MEDICINE, priority 2014, dated 2022)
